# From the supplement of paper PMC10307832
# Experiments:
# Experiment in all cases: relative viability (nuclei count vs DMSO), 5 days (fraction); higher = more cells survive
# Alisertib + Decitabine = compound: COc1cc(Nc2ncc3c(n2)-c2ccc(Cl)cc2C(c2c(F)cccc2OC)=NC3)ccc1C(=O)O [Alisertib] + Nc1ncn([C@H]2C[C@H](O)[C@@H](CO)O2)c(=O)n1 [Decitabine] (partner 2 µM)
# Procedure, shortened: (§1)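 Cells from lung cancer lines were seeded into 1536-well plates and, one day later, dosed by pin tool. Treatments were either a single drug or a fixed dose of an anchor drug with five library-drug doses (not always all listed) in √10 steps. After 5 days, nuclei were stained in a one-step fixation (final 0.05% Triton X-100, 1% formaldehyde, 1 ug/ml Hoechst) and counted on 4× images, and relative viability is the treated-to-vehicle nuclei ratio, as the median of duplicate plates.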
# Alisertib + Tozasertib = compound: COc1cc(Nc2ncc3c(n2)-c2ccc(Cl)cc2C(c2c(F)cccc2OC)=NC3)ccc1C(=O)O [Alisertib] + Cc1cc(Nc2cc(N3CCN(C)CC3)nc(Sc3ccc(NC(=O)C4CC4)cc3)n2)n[nH]1 [Tozasertib] (partner 0.1 µM)
# Procedure, shortened: as §1
# Alisertib + Lapatinib = compound: COc1cc(Nc2ncc3c(n2)-c2ccc(Cl)cc2C(c2c(F)cccc2OC)=NC3)ccc1C(=O)O [Alisertib] + CS(=O)(=O)CCNCc1ccc(-c2ccc3ncnc(Nc4ccc(OCc5cccc(F)c5)c(Cl)c4)c3c2)o1 [Lapatinib] (partner 2 µM)
# Procedure, shortened: as §1
# Alisertib + Crizotinib = compound: COc1cc(Nc2ncc3c(n2)-c2ccc(Cl)cc2C(c2c(F)cccc2OC)=NC3)ccc1C(=O)O [Alisertib] + C[C@@H](Oc1cc(-c2cnn(C3CCNCC3)c2)cnc1N)c1c(Cl)ccc(F)c1Cl [Crizotinib] (partner 1 µM)
# Procedure, shortened: as §1
Cell Line,relative viability (Alisertib + Decitabine; first compound 0.005 µM),relative viability (Alisertib + Decitabine; first compound 0.01581 µM),relative viability (Alisertib + Decitabine; first compound 0.05 µM),relative viability (Alisertib + Decitabine; first compound 0.1581 µM),relative viability (Alisertib + Decitabine; first compound 0.5 µM),relative viability (Alisertib + Tozasertib; first compound 0.005 µM),relative viability (Alisertib + Tozasertib; first compound 0.01581 µM),relative viability (Alisertib + Tozasertib; first compound 0.05 µM),relative viability (Alisertib + Tozasertib; first compound 0.1581 µM),relative viability (Alisertib + Tozasertib; first compound 0.5 µM),relative viability (Alisertib + Lapatinib; first compound 0.005 µM),relative viability (Alisertib + Lapatinib; first compound 0.01581 µM),relative viability (Alisertib + Lapatinib; first compound 0.05 µM),relative viability (Alisertib + Lapatinib; first compound 0.1581 µM),relative viability (Alisertib + Lapatinib; first compound 0.5 µM),relative viability (Alisertib + Crizotinib; first compound 0.005 µM),relative viability (Alisertib + Crizotinib; first compound 0.01581 µM),relative viability (Alisertib + Crizotinib; first compound 0.05 µM),relative viability (Alisertib + Crizotinib; first compound 0.1581 µM),relative viability (Alisertib + Crizotinib; first compound 0.5 µM)
NCI-H2087,0.246,0.268,0.149,0.126,0.0842,0.204,0.249,0.126,0.158,0.144,1.16,0.724,0.245,0.188,0.183,0.893,0.609,0.176,0.225,0.209
NCI-H2126,0.528,0.558,0.326,0.268,0.553,0.798,0.637,0.405,0.293,0.288,0.688,0.754,0.713,0.408,0.312,0.96,0.945,0.486,0.365,0.311
NCI-H2170,0.452,0.448,0.3,0.272,0.147,0.658,0.674,0.321,0.261,0.161,0.268,0.25,0.275,0.221,0.187,1.17,1.03,0.438,0.325,0.225
NCI-H2347,0.574,0.582,0.523,0.51,0.374,0.517,0.549,0.415,0.401,0.273,0.815,0.911,0.877,0.738,0.531,0.783,0.526,0.61,0.454,0.468
NCI-H2405,0.648,0.748,0.632,0.39,0.277,0.772,0.618,0.308,0.293,0.258,1.03,0.873,0.932,0.295,0.272,0.781,0.794,0.491,0.268,0.253
NCI-H3122,0.376,0.412,0.375,0.192,0.161,0.384,0.315,0.235,0.27,0.191,1.01,0.999,0.899,0.433,0.307,0.244,0.306,0.217,0.218,0.191
PC-3 [JPC-3],0.829,0.822,0.661,0.62,0.51,0.893,0.814,0.548,0.551,0.387,0.453,0.441,0.441,0.374,0.329,0.955,0.981,0.646,0.474,0.386
PC-14,0.173,0.187,0.154,0.057,0.0492,0.566,0.492,0.26,0.0568,0.06,0.402,0.31,0.329,0.184,0.099,0.845,0.877,0.654,0.145,0.112
RERF-LC-KJ,0.731,0.443,0.258,0.173,0.247,0.511,0.386,0.253,0.27,0.218,0.844,0.713,0.673,0.318,0.201,0.831,0.662,0.692,0.206,0.196
SK-LU-1,0.58,0.665,0.239,0.307,0.276,0.303,0.286,0.219,0.224,0.205,0.79,0.569,0.296,0.265,0.237,0.775,0.628,0.389,0.362,0.239
SK-MES-1,0.373,0.346,0.225,0.158,0.167,0.819,0.705,0.429,0.207,0.135,0.468,0.508,0.411,0.263,0.219,0.914,0.801,0.673,0.25,0.18
SW 1573,0.419,0.338,0.212,0.125,0.109,0.135,0.153,0.132,0.147,0.158,1.15,0.939,0.552,0.345,0.203,0.776,0.466,0.434,0.248,0.113
UMC-11,0.514,0.324,0.291,0.213,0.214,0.201,0.23,0.201,0.213,0.219,0.438,0.29,0.162,0.163,0.158,0.515,0.285,0.117,0.103,0.0832
